≈ marks a conversion by molar mass, not a printed value. Blank lines part the entries; values can stand above or below the molecule they belong to.
Key:
physchem = conditions: buffer, pH 7.4
[1] = Oral bioavailability in […] at 5 mg/kg; type: ADME, organism-based, Macaca fascicularis; conditions: in vivo
[2] = Kinetic solubility in 2% sodium phosphate buffer at pH 6.5 after 24 hrs; type: physicochemical; conditions: read-out: Kinetic_solubility
[3] = Volume of distribution at steady state in […] at 1 mg/kg, iv or 4 mg/kg, po; type: ADME, organism-based, Canis lupus familiaris; conditions: in vivo, read-out: Vdss
[4] = Toxicity in human THLE cells; type: cell-based
[5] = Oral bioavailability in […] at 4 mg/kg; type: ADME, organism-based, Canis lupus familiaris; conditions: in vivo
[6] = Volume of distribution at steady state in […] at 1 mg/kg, iv or 5 mg/kg, po; type: ADME, organism-based, Macaca fascicularis; conditions: in vivo, read-out: Vdss
[7] = Volume of distribution at steady state in Wistar Han rat at 1 mg/kg, iv or 5 mg/kg, po; type: ADME, organism-based; conditions: in vivo, read-out: Vdss
[8] = Oral bioavailability in Wistar Han rat at 5 mg/kg; type: ADME, organism-based; conditions: in vivo

SMILES: Cc1cc(-c2ccc3c(c2)CC[C@H]3N2CC3(CCN(C(=O)Cc4nn(C)c5ncccc45)CC3)C2)ncn1
logD (physchem): 2.1

SMILES: COc1ccc(CCC(=O)N2CCC3(CC2)CN([C@@H]2CCc4cc(-c5cc(C)ncn5)ccc42)C3)c(C(N)=O)c1
logD (physchem): 1.9

SMILES: COc1ccc(CC(=O)N2CCC3(CC2)CN([C@@H]2CCc4cc(-c5cc(C)ncn5)ccc42)C3)nc1
logD (physchem): 1.6

SMILES: COc1ccc(CC(=O)N2CCC3(CC2)CN([C@@H]2CCc4cc(-c5cc(C)ncn5)ccc42)C3)c(NC(C)=O)c1
logD (physchem): 1.6

Now from value to molecule, other results behind:

bioavailability [1]: 32%
solubility kinetic at 24 h [2]: 185 µg/mL (≈ 352 µM)
Vd [3]: 7.3 L/kg
logD (physchem): 1.4
bioavailability [5]: 67%
Vd [6]: 2.2 L/kg
Vd [7]: 8.1 L/kg
bioavailability [8]: 15%
SMILES: COc1ccc(CC(=O)N2CCC3(CC2)CN([C@@H]2CCc4cc(-c5cc(C)ncn5)ccc42)C3)c(C(N)=O)c1
INH [4]: > 248 µM

logD (physchem): 2.3
SMILES: COc1ccc(OCC(=O)N2CCC3(CC2)CN([C@@H]2CCc4cc(-c5cc(C)ncn5)ccc42)C3)c(C#N)c1

logD (physchem): 2.4
SMILES: COc1ccc(CC(=O)N2CCC3(CC2)CN([C@@H]2CCc4cc(-c5cc(C)ncn5)ccc42)C3)c(C#N)c1
